According to PMC7915588, “Polyphyllin D Shows Anticancer Effect through a Selective Inhibition of Src Homology Region 2-Containing Protein Tyrosine Phosphatase-2 (SHP2)” (Molecules, 2021):

Assays:
PTPN18 (PTP-HSCF) = biological target: T1, PTPN18 (PTP-HSCF) (Homo sapiens, UniProt Q99952); experiment: biochemical; parameters: Fluorogenic phosphatase assay, DiFMUP hydrolysis by recombinant PTPs, initial velocity, Ex/Em 355/460 nm; settings: read-out: Inhibition by 20 µM polyphyllin D (%)
T1 construct: 1-300
T1 sequence (Q99952 1-460): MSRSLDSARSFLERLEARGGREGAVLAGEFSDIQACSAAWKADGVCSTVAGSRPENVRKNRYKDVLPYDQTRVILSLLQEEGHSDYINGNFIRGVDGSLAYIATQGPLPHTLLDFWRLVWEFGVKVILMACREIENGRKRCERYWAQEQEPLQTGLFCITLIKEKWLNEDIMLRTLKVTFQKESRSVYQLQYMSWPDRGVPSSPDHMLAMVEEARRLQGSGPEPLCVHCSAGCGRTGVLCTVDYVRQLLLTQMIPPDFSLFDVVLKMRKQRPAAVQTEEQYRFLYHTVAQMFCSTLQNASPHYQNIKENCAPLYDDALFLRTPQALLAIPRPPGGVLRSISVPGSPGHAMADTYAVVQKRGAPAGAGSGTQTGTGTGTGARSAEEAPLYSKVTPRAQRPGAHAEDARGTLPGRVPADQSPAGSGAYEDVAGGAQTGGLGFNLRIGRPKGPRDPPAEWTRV

PTPN3 (PTPH1) = biological target: T2, PTPN3 (PTPH1) (Homo sapiens, UniProt P26045); experiment: biochemical; parameters: Fluorogenic phosphatase assay, DiFMUP hydrolysis by recombinant PTPs, initial velocity, Ex/Em 355/460 nm; settings: read-out: Inhibition by 20 µM polyphyllin D (%)
T2 construct: 403-913
T2 sequence (P26045 1-913): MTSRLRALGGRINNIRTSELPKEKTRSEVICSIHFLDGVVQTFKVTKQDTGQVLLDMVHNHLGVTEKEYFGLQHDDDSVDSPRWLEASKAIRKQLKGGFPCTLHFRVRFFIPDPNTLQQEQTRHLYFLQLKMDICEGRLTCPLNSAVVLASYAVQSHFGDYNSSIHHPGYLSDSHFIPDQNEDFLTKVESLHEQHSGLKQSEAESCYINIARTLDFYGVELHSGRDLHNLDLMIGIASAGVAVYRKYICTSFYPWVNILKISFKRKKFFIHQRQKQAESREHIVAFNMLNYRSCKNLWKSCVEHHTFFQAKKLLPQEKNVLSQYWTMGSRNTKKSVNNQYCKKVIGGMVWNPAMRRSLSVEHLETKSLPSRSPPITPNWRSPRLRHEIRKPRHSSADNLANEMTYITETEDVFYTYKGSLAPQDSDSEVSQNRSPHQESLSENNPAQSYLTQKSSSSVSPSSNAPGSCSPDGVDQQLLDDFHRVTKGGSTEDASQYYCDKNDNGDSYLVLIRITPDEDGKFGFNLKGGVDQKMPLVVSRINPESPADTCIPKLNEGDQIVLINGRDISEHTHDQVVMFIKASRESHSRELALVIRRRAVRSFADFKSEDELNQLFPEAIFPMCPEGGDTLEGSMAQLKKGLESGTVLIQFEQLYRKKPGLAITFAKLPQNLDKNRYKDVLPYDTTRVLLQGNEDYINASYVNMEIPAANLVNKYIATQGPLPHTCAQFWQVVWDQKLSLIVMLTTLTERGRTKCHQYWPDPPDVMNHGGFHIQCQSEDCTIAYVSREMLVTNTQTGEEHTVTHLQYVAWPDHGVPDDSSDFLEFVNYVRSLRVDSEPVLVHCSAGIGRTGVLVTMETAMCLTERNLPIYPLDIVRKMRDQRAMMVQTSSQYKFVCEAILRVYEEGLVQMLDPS

Structure (SMILES): C[C@@H]1CC[C@@]2(OC1)O[C@H]1C[C@H]3[C@@H]4CC=C5C[C@@H](O[C@@H]6O[C@H](CO)[C@@H](O[C@@H]7O[C@@H](CO)[C@H](O)[C@H]7O)[C@H](O)[C@H]6O[C@@H]6O[C@@H](C)[C@H](O)[C@@H](O)[C@H]6O)CC[C@]5(C)[C@H]4CC[C@]3(C)[C@H]1[C@@H]2C [polyphyllin D]
- inhibition at 20 µM (PTPN18 (PTP-HSCF)): 14.2%
- inhibition at 20 µM (PTPN3 (PTPH1)): 0%
